For 3 compounds, Ki results are on record in BindingDB's records for doi:10.1021/jm9805182 (University of Minnesota, 1999).

Molecules are shown by their SMILES.

Test [1] in a line: Mutant factor of the compound against mu-[K303E] with Opioid receptor kappa 1 for binding affinity.
Test [2] is described as follows: Mutant factor against mu-[K303E] with Opioid receptor kappa 1 for binding affinity.

Turning to `NC(N)=Nc1ccc2[nH]c3c(c2c1)C[C@@]1(O)[C@H]2Cc4ccc(O)c5c4[C@@]1(CCN2CC1CC1)[C@H]3O5`, in test [1], the Ki was 0.06 nM.

The compound `N#CN=C(N)Nc1ccc2[nH]c3c(c2c1)C[C@@]1(O)C2Cc4ccc(O)c5c4[C@@]1(CCN2CC1CC1)[C@H]3O5` [5'-[N-(N'-Cyano)guanidinyl]-17-cyclopropylmethyl-6,7-didehydro-4,5alpha-epoxy-3,14-dihydroxyindolo[2',3':6,7]morphinan] came in with a Ki in test [2] of 0.29 nM.

`Oc1ccc2c3c1O[C@H]1c4[nH]c5c(c4C[C@@]4(O)[C@@H](C2)N(CC2CC2)CC[C@]314)C[C@@]1(O)[C@H]2Cc3ccc(O)c4c3[C@@]1(CCN2CC1CC1)[C@H]5O4` [C18130] showed an inhibitory constant (Ki) in test [2] of 0.77 nM.

The Ki is a dissociation constant, usually derived from enzyme kinetics or from competition with a known ligand.
